Laboratory results reported in US7432303B2, “Chalcone and its analogs as agents for the inhibition of angiogenesis and related disease states” (James and Emory University, priority 1999, dated 2008).
Where two headings read alike, the source gives them in different places.

Tested on: SVR cells
Assay: SVR cell assay: cell numbers counted at 48 hours, percent inhibition versus control
Format: cell-based, murine
Conditions: for inhibition at 1 µg/mL: read-out: Percent Inhibition at a Specified Density (μg/ml): 1; for inhibition at 3 µg/mL: read-out: Percent Inhibition at a Specified Density (μg/ml): 3; for inhibition at 6 µg/mL: read-out: Percent Inhibition at a Specified Density (μg/ml): 6
[1] = Mus musculus, 1 μg/ml, 10,000 SVR cells in 24 well dish, counted at 48 hours
[2] = Mus musculus, 3 μg/ml, 10,000 SVR cells in 24 well dish, counted at 48 hours
[3] = Mus musculus, 6 μg/ml, 10,000 SVR cells in 24 well dish, counted at 48 hours
[4] = 1 μg/ml, 10,000 SVR cells in 24 well dish, counted at 48 hours
[5] = 3 μg/ml, 10,000 SVR cells in 24 well dish, counted at 48 hours
[6] = 6 μg/ml, 10,000 SVR cells in 24 well dish, counted at 48 hours
[7] = 9 μg/ml, 10,000 SVR cells in 24 well dish, counted at 48 hours

Procedure: In the case of testing the anti-angiogenic/anti-cancer activity of compounds according to the present invention, an assay based on SVR cells may be employed. […] The cell numbers are counted and compared against controls. Percent inhibition is readily determined from the data obtained.
10,000 SVR cells were seeded in a 24 well dish [Arbiser, et al., J. Am. […] The cell numbers were counted at 48 hours.

| Compound | inhibition at 1 µg/mL [1] [%] | inhibition at 3 µg/mL [2] [%] | inhibition at 6 µg/mL [3] [%] | Percent Inhibition at a Specified Density (μg/ml): 1 [4] [%] | Percent Inhibition at a Specified Density (μg/ml): 3 [5] [%] | Percent Inhibition at a Specified Density (μg/ml): 6 [6] [%] | other results |
| --- | --- | --- | --- | --- | --- | --- | --- |
| O=C(/C=C/c1ccccc1)c1c(Cl)cccc1Cl [Compound 33, 2′,6′-Dichlorochalcone] | 2.23 | 51.1 | 88.7 | – | – | – | – |
| O=C(/C(Br)=C/c1ccccc1)c1ccccc1 [Compound 41, α-Bromo-Z-chalcone] | – | – | – | 57.2 | 75.7 | 79.8 | – |
| O=C(C=Cc1c2ccccc2cc2ccccc12)c1c2ccccc2cc2ccccc12 [Compound 53, 1,3-Di(9-Anthryl)propenone] | – | – | – | 0.0 | 0.0 | 4.7 | – |
| Cc1ccc(C(=O)/C=C/c2ccccc2)c(C)c1 [Compound 22, 2′,4′-Dimethylchalcone] | 41.7 | 80.4 | 87.2 | – | – | – | – |
| O=C1C(=Cc2c(Cl)cccc2Cl)CCc2ccccc21 [Compound 69, 2-(2,6-Dichlorobenzylidene)tetralone] | – | – | – | 32.8 | 37.0 | 53.7 | – |
| O=C(C=Cc1c2ccccc2cc2ccccc12)c1ccccc1 [Compound 52, 3-(9-Anthryl)-1-phenylpropenone] | – | – | – | 54.6 | 53.5 | 71.3 | – |
| Cc1ccc(C(=O)/C=C/c2ccc(OCc3ccccc3)cc2)cc1 [Compound 24, 4-Benzyloxy-4′-methylchalcone] | 18.4 | 5.1 | 17 | – | – | – | – |
| O=C1C(=Cc2c(Cl)cccc2Cl)COc2ccccc21 [Compound 67, 3-(2,6-Dichlorobenzylidene)chromanone] | – | – | – | 5.4 | 3.6 | 12.5 | – |
| O=C(/C=C/c1ccccc1)c1ccccc1 [Compound 1, Chalcone] | 71.6 | 92.8 | 94.4 | – | – | – | – |
| 2-(2-Naphthylidene)tetralone [Compound 71] | – | – | – | – | 82.8 | 88.7 | Percent Inhibition at a Specified Density (μg/ml): 9 [7]: 87.1% |
| O=C(C=Cc1cccnc1)c1ccccc1 [Compound 48, 1-Phenyl-3-(3-pyridyl)propenone] | – | – | – | 30.0 | 31.7 | 83.2 | – |
| O=C1C(=Cc2ccccc2)CCc2ccccc21 [Compound 68, 2-(Benzylidene)tetralone] | – | – | – | – | 57.9 | 97.5 | Percent Inhibition at a Specified Density (μg/ml): 9 [7]: 96.7% |
| Cc1ccc(C(=O)/C=C/c2ccc(Cl)cc2Cl)cc1 [Compound 27, 2,4-Dichloro-4′-methylchalcone] | 19.9 | 10.4 | 84.6 | – | – | – | – |
| O=C(C=Cc1ccccc1)c1ccc[nH]1 [Compound 49, 3-Phenyl-1-(2-pyrrolyl)propenone] | – | – | – | 8.3 | 11.4 | 19.4 | – |
| O=C(O)/C=C/c1ccccc1 [Compound 10, trans-Cinnamic Acid, reference compound] | 18.6 | 14.1 | 69.6 | – | – | – | – |
| O=C1C(=Cc2ccccc2)COc2ccccc21 [Compound 66, 3-Benzylidene-4-chromanone] | 12.3 | 23.8 | 54.3 | – | – | – | – |

| Compound | inhibition at 1 µg/mL [1] [%] | inhibition at 3 µg/mL [2] [%] | inhibition at 6 µg/mL [3] [%] | Percent Inhibition at a Specified Density (μg/ml): 1 [4] [%] | Percent Inhibition at a Specified Density (μg/ml): 3 [5] [%] | Percent Inhibition at a Specified Density (μg/ml): 6 [6] [%] | other results |
| --- | --- | --- | --- | --- | --- | --- | --- |
| COc1cccc(OC)c1C(=O)/C=C/c1c(Cl)cccc1Cl [Compound 40, 2,6-Dichloro-2′,6′-dimethoxychalcone] | 23.2 | 43.7 | 52.3 | – | – | – | – |
| O=C(C=Cc1ccccc1)c1ccco1 [Compound 44, 1-(2-Furyl)-3-phenylpropenone] | – | – | – | 28.2 | 57.7 | 90.2 | – |
| Cc1ccc(C(=O)/C=C/c2c(Cl)cccc2Cl)cc1 [Compound 28, 2,6-Dichloro-4′-methylchalcone] | 73.7 | 98.2 | 98.1 | – | – | – | – |
| CC(=O)/C=C/c1ccccc1 [Compound 5, 4-Phenyl-3E-buten-2-one] | – | – | – | – | – | – | inhibition at 1 µg/mL (Mus musculus, SVR, 48 h): 41.9%; inhibition at 3 µg/mL (Mus musculus, SVR, 48 h): 69%; inhibition at 6 µg/mL (Mus musculus, SVR, 48 h): 64% |
| O=C(/C=C/c1c(Cl)cccc1Cl)c1c(Cl)cccc1Cl [Compound 32, 2,2′,6,6′-Tetrachlorochalcone] | – | 74.9 | 97 | – | – | – | inhibition at 9 µg/mL (Mus musculus, 9 μg/ml, 10,000 SVR cells in 24 well dish, counted at 48 hours, read-out: Percent Inhibition at a Specified Density (μg/ml): 9): 98.1% |
| O=C(O)Cc1ccc(C(=O)/C=C/c2ccccc2)cc1 [Compound 17, 4′-Carboxymethylchalcone] | 13.7 | 3.8 | 29.7 | – | – | – | – |
| O=C(C=Cc1ccc2ccccc2c1)c1c2ccccc2cc2ccccc12 [Compound 54, 1-(9-Anthryl)-3-(2-naphthyl)propenone] | – | – | – | 52.5 | 57.3 | 48.1 | – |
| CC(=O)c1cc2cc(Br)ccc2oc1=O [Compound 12, 3-Acetyl-6-bromocoumarin, reference compound] | 20 | 12.7 | 17.4 | – | – | – | – |
| O=C(C=Cc1ccco1)c1ccccc1 [Compound 45, 3-(2-Furyl)-1-phenylpropenone] | – | – | – | 9.8 | 1.0 | 0.0 | – |
| O=C(C=Cc1ccco1)c1ccco1 [Compound 43, 1,3-Bis(2-furyl)propenone] | – | – | – | 7.7 | 8.1 | 12.0 | – |
| O=C(C=Cc1ccccc1)c1cccc2ccccc12 [Compound 58, 1-(1-Naphthyl)-3-phenylpropenone] | – | – | – | 10.9 | 33.2 | 68.0 | – |
| O=c1ccoc2ccccc12 [Compound 15, Chromone, reference compound] | 20.6 | 8.2 | 20.8 | – | – | – | – |
| O=C(/C=C/c1c(F)cccc1Cl)/C=C/c1c(F)cccc1Cl [Compound 72, 1,5-Di(2-chloro-6-fluorophenyl)-1E,4E-pentadien-3-one] | 57 | 70.6 | 86.6 | – | – | – | – |
| O=C1C(=Cc2ccccc2)CCC1=Cc1ccccc1 [Compound 4, 2,5-(Dibenzylidene)cyclopentanone] | – | – | – | 19.6 | 23.8 | 38.6 | – |
| O=C(/C=C/c1ccccc1)c1cccc(C(F)(F)F)c1 [Compound 18, 3′-(Trifluoromethyl)chalcone] | 42.2 | 87.4 | 96.9 | – | – | – | – |
